From patent US9676704B2, “Pesticidal compositions and processes related thereto” (Dow AgroSciences LLC, priority 2014, dated 2017)

What was measured:
Beet Armyworm (BAW) = assay: Bioassays on BAW, 128-well diet tray assay; assay type: in vivo; conditions: Spodoptera exigua; for mortality at 50 µg/cm2: 168 h, 50 μg/cm^2 on artificial diet, second instar larvae, five to seven days, 25° C., read-out: BAW % Control (or Mortality) rating; for mortality at 0.05 µg/cm2: 0.05 μg/cm^2; for mortality at 0.05 µg/cm2 / mortality at 0.5 µg/cm2 / mortality at 5 µg/cm2: read-out: BAW Percent control (or mortality); for mortality at 0.5 µg/cm2: 0.5 μg/cm^2; for mortality at 5 µg/cm2: 5 μg/cm^2
Method: Bioassays on BAW were conducted using a 128-well diet tray assay. one to five second instar BAW larvae were placed in each well (3 mL) of the diet tray that had been previously filled with 1 mL of artificial diet to which 50 μg/cm^2 of the test compound (dissolved in 50 μL of 90:10 acetone-water mixture) had been applied (to each of eight wells) and then allowed to dry. Trays were covered with a clear self-adhesive cover, and held at 25° C., 14:10 light-dark for five to seven days. Percent mortality was recorded for the larvae in each well; activity in the eight wells was then averaged. The results are indicated in the tables entitled “Table ABC: Assay Results (F)”, “Table ABCD: Assay Results (C)”, and “Table ABCDE: Assay Results (P)” (See Table Section).
(§1) Bioassays on BAW and CL were conducted according to the procedures outlined in Example A: Bioassays on Beet Armyworm (“BAW”) and Cabbage Looper (“CL”) using the following concentrations: 5, 0.5, and 0.05 μg/cm^2.

[1] = system: Yellow Fever Mosquito (YFM); assay type: in vivo, Aedes aegypti; conditions: 15 μL of diluted 4000 ppm master solution per well, about 1 day-old larvae, 3 days
Method: Master plates containing 400 μg of a molecule dissolved in 100 μL of dimethyl sulfoxide (DMSO) (equivalent to a 4000 ppm solution) are used. A master plate of assembled molecules contains 15 μL per well. To this plate, 135 μL of a 90:10 water:acetone mixture is added to each well. A robot (Biomek® NXP Laboratory Automation Workstation) is programmed to dispense 15 μL aspirations from the master plate into an empty 96-well shallow plate (“daughter” plate). There are 6 reps (“daughter” plates) created per master. The created daughter plates are then immediately infested with YFM larvae. The day before plates are to be treated, mosquito eggs are placed in Millipore water containing liver powder to begin hatching (4 g. into 400 mL). After the daughter plates are created using the robot, they are infested with 220 μL of the liver powder/larval mosquito mixture (about 1 day-old larvae). After plates are infested with mosquito larvae, a non-evaporative lid is used to cover the plate to reduce drying. Plates are held at room temperature for 3 days prior to grading. After 3 days, each well is observed and scored based on mortality. The results are indicated in the table entitled “Table ABC: Assay Results (F)” and “Table ABCD: Assay Results (C)” (See Table Section). Pesticidally Acceptable Acid Addition Salts, Salt Derivatives, Solvates, Ester Derivatives, Polymorphs, Isotopes and Radionuclides

Cabbage Looper (CL) = assay: Bioassays on CL, 128-well diet tray assay; assay type: in vivo; conditions: Trichoplusia ni; for mortality at 50 µg/cm2: 168 h, 50 μg/cm^2 on artificial diet, second instar larvae, five to seven days, 25° C., read-out: CL % Control (or Mortality) rating; for mortality at 0.05 µg/cm2: 0.05 μg/cm^2; for mortality at 0.05 µg/cm2 / mortality at 0.5 µg/cm2 / mortality at 5 µg/cm2: read-out: CL Percent control (or mortality); for mortality at 0.5 µg/cm2: 0.5 μg/cm^2; for mortality at 5 µg/cm2: 5 μg/cm^2
Method: Bioassays on CL were conducted using a 128-well diet tray assay. One to five second instar CL larvae were placed in each well (3 mL) of the diet tray that had been previously filled with 1 mL of artificial diet to which 50 μg/cm^2 of the test compound (dissolved in 50 μL of 90:10 acetone-water mixture) had been applied (to each of eight wells) and then allowed to dry. Trays were covered with a clear self-adhesive cover, and held at 25° C., 14:10 light-dark for five to seven days. Percent mortality was recorded for the larvae in each well; activity in the eight wells was then averaged. The results are indicated in the table entitled “Table ABC: Assay Results (F)”, “Table ABCD: Assay Results (C)”, and “Table ABCDE: Assay Results (P)” (See Table Section).
as §1

In the case of C[C@H](NC(=O)CCCC(F)(F)F)NC(=O)c1ccc(/C=C/C(c2cc(Cl)c(Cl)c(Cl)c2)C(F)(F)F)cc1C(F)(F)F (stereo partly drawn) [Compound F10, 4-((E)-4,4,4-Trifluoro-3-(3,4,5-trichlorophenyl)but-1-en-1-yl)-2-(trifluoromethyl)-N—((R)-1-(5,5,5-trifluoropentanamido)ethyl)benzamide], the mortality at 50 µg/cm2 (Beet Armyworm (BAW)) is reported as 50 to 100%, the “YFM % Control (or Mortality) rating” value [1] is reported as “A (80-100)” and the mortality at 50 µg/cm2 (Cabbage Looper (CL)) is reported as 50 to 100%.
In the case of CCCCC(=O)N[C@@H](C)NC(=O)c1ccc(/C=C/C(c2cc(Cl)c(Cl)c(Cl)c2)C(F)(F)F)cc1C(F)(F)F (stereo partly drawn) [Compound F5, N—((R)-1-Pentanamidoethyl)-4-((E)-4,4,4-trifluoro-3-(3,4,5-trichlorophenyl)but-1-en-1-yl)-2-(trifluoromethyl)benzamide], the mortality at 50 µg/cm2 (Beet Armyworm (BAW)) is reported as 50 to 100%, the “YFM % Control (or Mortality) rating” value [1] is reported as “A (80-100)” and the mortality at 50 µg/cm2 (Cabbage Looper (CL)) is reported as 50 to 100%.
Cc1cc(/C=C/C(c2cc(Cl)c(F)c(Cl)c2)C(F)(F)F)ccc1C(=O)N[C@H](C)NC(=O)CCC(F)(F)F (stereo partly drawn) [Compound P13, 4-((E)-3-(3,5-Dichloro-4-fluorophenyl)-4,4,4-trifluorobut-1-en-1-yl)-2-methyl-N—((R)-1-(4,4,4-trifluorobutanamido)ethyl)benzamide] was tested, and the mortality at 50 µg/cm2 (Beet Armyworm (BAW)) was 50 to 100%, the “YFM % Control (or Mortality) rating” value [1] was “A (80-100)” and the mortality at 50 µg/cm2 (Cabbage Looper (CL)) was 50 to 100%.
For C[C@H](NC(=O)CCC(F)(F)F)NC(=O)c1ccc(/C=C/C(c2cc(Br)cc(Br)c2)C(F)(F)F)cc1C(F)(F)F (stereo partly drawn) [Compound P11, 4-((E)-3-(3,5-Dibromophenyl)-4,4,4-trifluorobut-1-en-1-yl)-N—((R)-1-(4,4,4-trifluorobutanamido)ethyl)-2-(trifluoromethyl)benzamide], the mortality at 50 µg/cm2 (Beet Armyworm (BAW)) was 50 to 100%, the “YFM % Control (or Mortality) rating” value [1] was “A (80-100)” and the mortality at 50 µg/cm2 (Cabbage Looper (CL)) was 50 to 100%.
CC(C)=CC(=O)N[C@@H](C)NC(=O)c1ccc(/C=C/C(c2cc(Cl)c(Cl)c(Cl)c2)C(F)(F)F)cc1C(F)(F)F (stereo partly drawn) [Compound F8, N—((R)-1-(3-Methylbut-2-enamido)ethyl)-4-((E)-4,4,4-trifluoro-3-(3,4,5-trichlorophenyl)but-1-en-1-yl)-2-(trifluoromethyl)benzamide] was tested, and the mortality at 50 µg/cm2 (Beet Armyworm (BAW)) was 50 to 100%, the “YFM % Control (or Mortality) rating” value [1] was “A (80-100)” and the mortality at 50 µg/cm2 (Cabbage Looper (CL)) was 50 to 100%.
CC(CC(=O)N[C@@H](C)NC(=O)c1ccc(/C=C/C(c2cc(Cl)c(Cl)c(Cl)c2)C(F)(F)F)cc1C(F)(F)F)C(F)(F)F (stereo partly drawn) [Compound F16, 4-((E)-4,4,4-Trifluoro-3-(3,4,5-trichlorophenyl)but-1-en-1-yl)-N-((1R)-1-(4,4,4-trifluoro-3-methylbutanamido)ethyl)-2-(trifluoromethyl)benzamide] was tested, and the mortality at 50 µg/cm2 (Beet Armyworm (BAW)) was 50 to 100%, the “YFM % Control (or Mortality) rating” value [1] was “A (80-100)” and the mortality at 50 µg/cm2 (Cabbage Looper (CL)) was 50 to 100%.
C[C@H](NC(=O)CCC(F)(F)F)NC(=O)c1ccc(/C=C/C(c2cc(Cl)c(Br)c(Cl)c2)C(F)(F)F)cc1C(F)(F)F (stereo partly drawn) [Compound P12, 4-((E)-3-(4-Bromo-3,5-dichlorophenyl)-4,4,4-trifluorobut-1-en-1-yl)-N—((R)-1-(4,4,4-trifluorobutanamido)ethyl)-2-(trifluoromethyl)benzamide] was tested, and the mortality at 50 µg/cm2 (Beet Armyworm (BAW)) was 50 to 100%, the “YFM % Control (or Mortality) rating” value [1] was “A (80-100)” and the mortality at 50 µg/cm2 (Cabbage Looper (CL)) was 50 to 100%.
With C[C@H](NC(=O)CC(F)(F)F)NC(=O)c1ccc(/C=C/C(c2cc(Br)c(Cl)c(Br)c2)C(F)(F)F)cc1C(F)(F)F (stereo partly drawn) [Compound P2, 4-((E)-3-(3,5-Dibromo-4-chlorophenyl)-4,4,4-trifluorobut-1-en-1-yl)-2-(trifluoromethyl)-N—((R)-1-(3,3,3-trifluoropropanamido)ethyl)benzamide] the mortality at 50 µg/cm2 (Beet Armyworm (BAW)) was 50 to 100%, the “YFM % Control (or Mortality) rating” value [1] was “A (80-100)” and the mortality at 50 µg/cm2 (Cabbage Looper (CL)) was 50 to 100%.
With C[C@H](NC(=O)CCC(F)(F)F)NC(=O)c1ccc(/C=C/C(c2cc(Cl)c(Cl)c(Cl)c2)C(F)(F)F)cc1C(F)(F)F (stereo partly drawn) [Compound F1, 4-((E)-4,4,4-Trifluoro-3-(3,4,5-trichlorophenyl)but-1-en-1-yl)-N—((R)-1-(4,4,4-trifluorobutanamido)ethyl)-2-(trifluoromethyl)benzamide] the mortality at 50 µg/cm2 (Beet Armyworm (BAW)) was 50 to 100%, the mortality at 0.05 µg/cm2 (Beet Armyworm (BAW)) was 100% and the mortality at 0.5 µg/cm2 (Beet Armyworm (BAW)) was 100%. It also gave a mortality at 5 µg/cm2 (Beet Armyworm (BAW)) of 100%, a mortality at 50 µg/cm2 (Cabbage Looper (CL)) of 50 to 100% and a mortality at 0.05 µg/cm2 (Cabbage Looper (CL)) of 97%. It also gave a mortality at 0.5 µg/cm2 (Cabbage Looper (CL)) of 100% and a mortality at 5 µg/cm2 (Cabbage Looper (CL)) of 100%.
Work on Cc1cc(/C=C/C(c2cc(Cl)c(Cl)c(Cl)c2)C(F)(F)F)ccc1C(=O)N[C@H](C)NC(=O)CCC(F)(F)F (stereo partly drawn) [Compound P25, 2-Methyl-4-((E)-4,4,4-trifluoro-3-(3,4,5-trichlorophenyl)but-1-en-1-yl)-N—((R)-1-(4,4,4-trifluorobutanamido)ethyl)benzamide] yielded a mortality at 50 µg/cm2 (Beet Armyworm (BAW)) of 50 to 100%, a mortality at 0.05 µg/cm2 (Beet Armyworm (BAW)) of 100% and a mortality at 0.5 µg/cm2 (Beet Armyworm (BAW)) of 100%. For the same molecule, the mortality at 5 µg/cm2 (Beet Armyworm (BAW)) was 100%, the mortality at 50 µg/cm2 (Cabbage Looper (CL)) was 50 to 100% and the mortality at 0.05 µg/cm2 (Cabbage Looper (CL)) was 100%. It also gave a mortality at 0.5 µg/cm2 (Cabbage Looper (CL)) of 100% and a mortality at 5 µg/cm2 (Cabbage Looper (CL)) of 100%.
CSCC(=O)N[C@@H](C)NC(=O)c1ccc(/C=C/C(c2cc(Cl)c(Cl)c(Cl)c2)C(F)(F)F)cc1C(F)(F)F (stereo partly drawn) [Compound P54, N—((S)-1-(2-(Methylthio)acetamido)ethyl)-4-((E)-4,4,4-trifluoro-3-(3,4,5-trichlorophenyl)but-1-en-1-yl)-2-(trifluoromethyl)benzamide] was tested, and the mortality at 50 µg/cm2 (Beet Armyworm (BAW)) was 50 to 100% and the mortality at 50 µg/cm2 (Cabbage Looper (CL)) was 50 to 100%.
With CNCCNC(=O)c1ccc(/C=C/C(c2cc(Cl)c(Cl)c(Cl)c2)C(F)(F)F)cc1C(F)(F)F (centres unmarked) [Compound C115, (E)-N-(2-(methylamino)ethyl)-4-(4,4,4-trifluoro-3-(3,4,5-trichlorophenyl)but-1-en-1-yl)-2-(trifluoromethyl)benzamide] the mortality at 50 µg/cm2 (Beet Armyworm (BAW)) was 50 to 100% and the mortality at 50 µg/cm2 (Cabbage Looper (CL)) was 0%.
CC(CC(F)(F)F)C(=O)N[C@@H](C)NC(=O)c1ccc(/C=C/C(c2cc(Cl)c(Cl)c(Cl)c2)C(F)(F)F)cc1C(F)(F)F (stereo partly drawn) [Compound P30, N—((R)-1-(4,4,4-Trifluoro-2-methylbutanamido)ethyl)-4-((E)-4,4,4-trifluoro-3-(3,4,5-trichlorophenyl)but-1-en-1-yl)-2-(trifluoromethyl)benzamide] gave a mortality at 50 µg/cm2 (Beet Armyworm (BAW)) of 50 to 100% and a mortality at 50 µg/cm2 (Cabbage Looper (CL)) of 50 to 100%.
For Cc1cc(/C=C/C(c2cc(Br)cc(Br)c2)C(F)(F)F)ccc1C(=O)N[C@H](C)NC(=O)CCC(F)(F)F (stereo partly drawn) [Compound P15, 4-((E)-3-(3,5-Dibromophenyl)-4,4,4-trifluorobut-1-en-1-yl)-2-methyl-N—((R)-1-(4,4,4-trifluorobutanamido)ethyl)benzamide], the mortality at 50 µg/cm2 (Beet Armyworm (BAW)) was 50 to 100% and the mortality at 50 µg/cm2 (Cabbage Looper (CL)) was 50 to 100%.
For C[C@H](NC(=O)CC(F)(F)F)NC(=O)c1ccc(/C=C/C(c2cc(Cl)c(Cl)c(Cl)c2)C(F)(F)F)cc1 (stereo partly drawn) [FC2, 4-((E)-4,4,4-Trifluoro-3-(3,4,5-trichlorophenyl)but-1-en-1-yl)-N—((R)-1-(3,3,3-trifluoropropanamido)ethyl)benzamide], the mortality at 0.05 µg/cm2 (Beet Armyworm (BAW)) was 0%, the mortality at 0.5 µg/cm2 (Beet Armyworm (BAW)) was 0% and the mortality at 5 µg/cm2 (Beet Armyworm (BAW)) was 0%. For the same molecule, the mortality at 0.05 µg/cm2 (Cabbage Looper (CL)) was 0%, the mortality at 0.5 µg/cm2 (Cabbage Looper (CL)) was 0% and the mortality at 5 µg/cm2 (Cabbage Looper (CL)) was 0%.
Cc1cc(/C=C/C(c2cc(Cl)c(Br)c(Cl)c2)C(F)(F)F)ccc1C(=O)N[C@H](C)NC(=O)CCC(F)(F)F (stereo partly drawn) [Compound P16, 4-((E)-3-(4-Bromo-3,5-dichlorophenyl)-4,4,4-trifluorobut-1-en-1-yl)-2-methyl-N—((R)-1-(4,4,4-trifluorobutanamido)ethyl)benzamide] showed a mortality at 50 µg/cm2 (Beet Armyworm (BAW)) of 50 to 100% and a mortality at 50 µg/cm2 (Cabbage Looper (CL)) of 50 to 100%.
